Assay results taken from US20240209028A1, “CNP COMPOUNDS” (priority 2022, published 2024).
Starred links: 1 amine or outer side, 2 acyl side, 3 side chain; linkers in the order of their positions; H or OH if unused. Positions of bridges follow the written chain, without caps; N, C: chain ends. Residues, ends and D or L forms follow the SMILES beside them. *: point of attachment. C18 diacid = O=C(O)CCCCCCCCCCCCCCCCC(=O)*; γGlu = O=C(O)[C@H](CCC(=O)[*:2])N[*:1]; AEEA = NCCOCCOCC(=O)O

molecular target: T1, human natriuretic peptide receptor 2 (hNPR2) (Homo sapiens, UniProt P20594); assay: In vitro hNPR2 activity assay (cGMP GloSensor reporter, HEK293); format: cell-based; details: 0% HSA; HEK293-hNPR2/GloSensor cells
T1 construct: expressed in transfected cells; host or cells: HEK293 (ATCC CRL-1573), clone 35, co-transfected with pGloSensor-42F
T1 sequence (P20594 23-1047): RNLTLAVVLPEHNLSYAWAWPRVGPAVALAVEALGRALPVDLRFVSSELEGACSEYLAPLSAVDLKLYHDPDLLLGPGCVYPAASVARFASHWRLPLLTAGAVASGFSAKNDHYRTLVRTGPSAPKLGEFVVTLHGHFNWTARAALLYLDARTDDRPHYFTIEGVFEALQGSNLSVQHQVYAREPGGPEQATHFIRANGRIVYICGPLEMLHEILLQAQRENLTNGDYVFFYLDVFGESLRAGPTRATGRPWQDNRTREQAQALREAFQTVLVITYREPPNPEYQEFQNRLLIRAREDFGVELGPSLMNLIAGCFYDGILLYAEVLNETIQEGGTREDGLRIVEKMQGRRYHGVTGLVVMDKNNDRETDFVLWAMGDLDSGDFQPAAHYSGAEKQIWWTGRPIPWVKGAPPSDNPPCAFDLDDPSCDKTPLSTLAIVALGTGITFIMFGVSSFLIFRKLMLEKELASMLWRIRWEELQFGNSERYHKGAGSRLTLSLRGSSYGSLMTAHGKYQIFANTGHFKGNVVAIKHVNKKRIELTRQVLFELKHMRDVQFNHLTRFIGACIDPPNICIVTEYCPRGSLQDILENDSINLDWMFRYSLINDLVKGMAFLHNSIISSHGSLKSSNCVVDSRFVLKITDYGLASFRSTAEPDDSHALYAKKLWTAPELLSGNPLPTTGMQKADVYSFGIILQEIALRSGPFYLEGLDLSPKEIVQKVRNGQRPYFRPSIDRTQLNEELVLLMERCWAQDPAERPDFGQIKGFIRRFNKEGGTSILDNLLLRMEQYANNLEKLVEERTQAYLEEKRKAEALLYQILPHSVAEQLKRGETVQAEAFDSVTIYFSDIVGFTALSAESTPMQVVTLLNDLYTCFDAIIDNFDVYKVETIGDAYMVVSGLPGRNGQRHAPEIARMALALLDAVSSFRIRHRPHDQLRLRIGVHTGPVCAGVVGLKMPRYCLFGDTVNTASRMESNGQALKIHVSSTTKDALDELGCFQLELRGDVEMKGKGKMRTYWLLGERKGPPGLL
How it was run: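 Potency is the EC50 from a four-parameter logistic fit, also expressed relative to the in-plate CNP22 control (×100), with at least two replicates. Compounds (ten concentrations, […], HSA-free diluent with 1% OVA, 0.01% Tween20) were incubated 30 min at 37 °C on HEK293 cells co-expressing hNPR2 and a GloSensor cGMP luciferase. Luminescence detected with Bright-Glo.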

EC50 [nM]	Compound
0.56	CC[C@H](C)[C@@H]1NC(=O)[C@H](CCCNC(=N)N)NC(=O)[C@H](CC(=O)O)NC(=O)[C@H](CC(C)C)NC(=O)[C@H](CCCCN)NC(=O)[C@H](CC(C)C)NC(=O)CNC(=O)[C@H](Cc2ccccc2)NC(=O)[C@@H](NC(=O)CNC(=O)[C@H](CCCCN)NC(=O)[C@H](CO)NC(=O)[C@H](CC(C)C)NC(=O)CNC(=O)[C@H](CCCCN)NC(=O)[C@H](CCCCN)NC(=O)[C@H](CCC(N)=O)NC(=O)[C@H](C)NC(=O)CNC(=O)[C@H](CCCCN)NC(=O)[C@H](Cc2ccc(O)cc2)NC(=O)[C@H](CCCCN)NC(=O)[C@H](CCCNC(=N)N)NC(=O)[C@H](C)NC(=O)[C@H](CCC(N)=O)NC(=O)[C@@H]2CCCN2C(=O)[C@H](Cc2c[nH]cn2)NC(=O)[C@H](CCC(=O)O)NC(=O)[C@H](CCC(N)=O)NC(=O)COCCOCCNC(=O)COCCOCCNC(=O)CC[C@H](NC(=O)CC[C@H](NC(=O)CC[C@H](NC(=O)CC[C@H](NC(=O)CC[C@H](NC(=O)CC[C@H](NC(=O)CC[C@H](NC(=O)CC[C@H](NC(=O)CCCCCCCCCCCCCCCCC(=O)O)C(=O)O)C(=O)O)C(=O)O)C(=O)O)C(=O)O)C(=O)O)C(=O)O)C(=O)O)CSSC[C@@H](C(=O)O)NC(=O)CNC(=O)[C@H](CC(C)C)NC(=O)CNC(=O)[C@H](CO)NC(=O)[C@H](CC(C)C)NC(=O)[C@H](CO)NC(=O)CNC1=O [compound 1401]

same assay, conditions: potency relative to CNP22 (0065)

Compound	hNPR2 0% HSA. [EC50% rel CNP] [%]
CC[C@H](C)[C@@H]1NC(=O)[C@H](CCCNC(=N)N)NC(=O)[C@H](CC(=O)O)NC(=O)[C@H](CC(C)C)NC(=O)[C@@H]2CCCN2C(=O)[C@H](CC(C)C)NC(=O)CNC(=O)[C@H](Cc2ccccc2)NC(=O)[C@@H](NC(=O)CNC(=O)[C@H](CCC(N)=O)NC(=O)[C@H](CO)NC(=O)[C@H](CC(C)C)NC(=O)CNC(=O)[C@H](CCCCN)NC(=O)[C@H](CCCCN)NC(=O)[C@H](CCC(N)=O)NC(=O)[C@H](C)NC(=O)CNC(=O)[C@H](CCC(=O)O)NC(=O)[C@H](Cc2ccc(O)cc2)NC(=O)[C@H](CCCCN)NC(=O)[C@H](CCCNC(=N)N)NC(=O)[C@H](C)NC(=O)[C@H](CCC(N)=O)NC(=O)[C@@H]2CCCN2C(=O)[C@H](Cc2c[nH]cn2)NC(=O)[C@H](CCC(=O)O)NC(=O)[C@H](CCC(N)=O)NC(=O)COCCOCCNC(=O)COCCOCCNC(=O)CC[C@H](NC(=O)CC[C@H](NC(=O)CCCCCCCCCCCCCCCCC(=O)O)C(=O)O)C(=O)O)CSSC[C@@H](C(=O)O)NC(=O)CNC(=O)[C@H](CC(C)C)NC(=O)CNC(=O)[C@H](CO)NC(=O)[C@H](CC(C)C)NC(=O)[C@H](CO)NC(=O)CNC1=O [compound 1396] ({C18 diacid-γGlu-γGlu-AEEA-AEEA}-QEHPQARKYEGAQKKGLSQGCFGLPLDRIGSLSGLGC-OH; disulfide 21-37)	43.1
CC[C@H](C)[C@@H]1NC(=O)[C@H](CCCNC(=N)N)NC(=O)[C@H](CC(=O)O)NC(=O)[C@H](CC(C)C)NC(=O)[C@@H]2CCCN2C(=O)[C@H](CC(C)C)NC(=O)CNC(=O)[C@H](Cc2ccccc2)NC(=O)[C@@H](NC(=O)CNC(=O)[C@H](CCC(N)=O)NC(=O)[C@H](CO)NC(=O)[C@H](CO)NC(=O)CNC(=O)[C@H](CCCCN)NC(=O)[C@H](CCCCN)NC(=O)[C@H](CCC(N)=O)NC(=O)[C@H](C)NC(=O)CNC(=O)[C@H](CCCCN)NC(=O)[C@H](Cc2ccc(O)cc2)NC(=O)[C@H](Cc2c[nH]cn2)NC(=O)[C@H](CCCNC(=N)N)NC(=O)[C@H](C)NC(=O)[C@H](CCC(N)=O)NC(=O)[C@@H]2CCCN2C(=O)[C@H](Cc2c[nH]cn2)NC(=O)[C@H](CCC(=O)O)NC(=O)[C@H](CCC(N)=O)NC(=O)COCCOCCNC(=O)COCCOCCNC(=O)CC[C@H](NC(=O)CC[C@H](NC(=O)CC[C@H](NC(=O)CC[C@H](NC(=O)CCCCCCCCCCCCCCCCC(=O)O)C(=O)O)C(=O)O)C(=O)O)C(=O)O)CSSC[C@@H](C(=O)O)NC(=O)CNC(=O)[C@H](CC(C)C)NC(=O)CNC(=O)[C@H](CO)NC(=O)[C@H](CC(C)C)NC(=O)[C@H](CO)NC(=O)CNC1=O [compound 1398] ({C18 diacid-γGlu-γGlu-γGlu-γGlu-AEEA-AEEA}-QEHPQARHYKGAQKKGSSQGCFGLPLDRIGSLSGLGC-OH; disulfide 21-37)	55.6
CC[C@H](C)[C@@H]1NC(=O)[C@H](CCCNC(=N)N)NC(=O)[C@H](CC(=O)O)NC(=O)[C@H](CC(C)C)NC(=O)[C@H](CCCCN)NC(=O)[C@H](CC(C)C)NC(=O)CNC(=O)[C@H](Cc2ccccc2)NC(=O)[C@@H](NC(=O)CNC(=O)[C@H](CCCCN)NC(=O)[C@H](CO)NC(=O)[C@H](CC(C)C)NC(=O)CNC(=O)[C@H](CCCCN)NC(=O)[C@H](CCCCN)NC(=O)[C@H](CCC(N)=O)NC(=O)[C@H](C)NC(=O)CNC(=O)[C@H](CCCCN)NC(=O)[C@H](Cc2ccc(O)cc2)NC(=O)[C@H](CCCCN)NC(=O)[C@H](CCCNC(=N)N)NC(=O)[C@H](C)NC(=O)[C@H](CCC(N)=O)NC(=O)[C@@H]2CCCN2C(=O)[C@H](Cc2c[nH]cn2)NC(=O)[C@H](CCC(=O)O)NC(=O)[C@H](CCC(N)=O)NC(=O)COCCOCCNC(=O)COCCOCCNC(=O)CC[C@H](NC(=O)CC[C@H](NC(=O)CC[C@H](NC(=O)CC[C@H](NC(=O)CC[C@H](NC(=O)CC[C@H](NC(=O)CC[C@H](NC(=O)CC[C@H](NC(=O)CCCCCCCCCCCCCCCCC(=O)O)C(=O)O)C(=O)O)C(=O)O)C(=O)O)C(=O)O)C(=O)O)C(=O)O)C(=O)O)CSSC[C@@H](C(=O)O)NC(=O)CNC(=O)[C@H](CC(C)C)NC(=O)CNC(=O)[C@H](CO)NC(=O)[C@H](CC(C)C)NC(=O)[C@H](CO)NC(=O)CNC1=O [compound 1401]	19.7
